# In the SangsterLogP compilation:
# Test: method code SF-HPLC, from DOI: 10.1016/0378-5173(85)90030-4
row,logP,Compound
1,2.5,CC(C)(C)C(=O)OCn1cnc2c(cnn2COC(=O)C(C)(C)C)c1=O
2,0.6,CCCC(=O)OCn1ncc2c(=O)[nH]cnc21
3,1.5,O=C(OCn1ncc2c(=O)[nH]cnc21)c1ccccc1
4,0.21,CCOC(=O)OCn1ncc2c(=O)[nH]cnc21
5,-0.35,CC(=O)OCn1ncc2c(=O)[nH]cnc21
6,1.82,CCCC(=O)OCn1cnc2c(cnn2COC(=O)CCC)c1=O
7,0.33,CCCC(=O)OCn1cc2c(=O)[nH]cnc2n1
8,2.34,CC(C)(C)C(=O)OCn1cc2c(=O)n(COC(=O)C(C)(C)C)cnc2n1
9,1.07,CC(C)(C)C(=O)OCn1ncc2c(=O)[nH]cnc21
10,0.27,O=C(OCn1ncc2c(=O)[nH]cnc21)c1cccnc1
11,-0.22,CCN(CC)C(=O)CCC(=O)OCn1ncc2c(=O)[nH]cnc21
12,0.79,CC(C)(C)C(=O)OCn1cc2c(=O)[nH]cnc2n1
